In patent publication US20090110720A1, “Use of compounds for the prevention of drug-induced cell toxicity” (priority 2005, published 2009):

Biological target: megalin (Oryctolagus cuniculus, UniProt Z9GY10I8Y6)
Assay: Inhibition of gentamicin binding to immobilized megalin by surface plasmon resonance (Biacore 2000)
Conditions: 1 mM gentamicin co-injected; megalin purified from rabbit kidneys immobilized on chip; pH 7.4 buffer; FIG. 3; read-out: antagonist concentration at which 50% inhibition of gentamicin binding is obtained
Experimental: Inhibition of gentamicin binding to immobilized megalin by p-xylylene diamine was assessed by surface plasmon resonance (SPR) analysis on a Biacore 2000 instrument (Biacore, Uppsala, Sweden). Megalin purified from rabbit kidneys as described in Birn et al. (J. Biol. Chem., 1997, Vol. 272, No. 42, 26497-26504) was immobilized in a concentration of 28-40 fmol/mm^2. Samples were dissolved in 10 mM Hepes, 150 mM NaCl, 1.5 mM CaCl2, 1 mM EGTA, 0.005% Tween-20 pH 7.4. The same buffer was used as running buffer. At time zero, p-xylylene diamine at the concentrations indicated (FIG. 3) were applied to the chip and binding as expressed in relative response units (RU), i.e. the difference in response between megalin and a control flow channel, was measured. After 700 sec., 1 mM gentamicin was co-injected with buffer alone or various concentrations of p-xylylene diamine. Inhibition of gentamicin binding is scored as the difference in RU units obtained by injection of gentamicin alone and in the presence of the antagonist. Regeneration of the sensor chip after each analysis cycle was performed with 1.6 M glycine-HCl buffer pH 3.0.
50% inhibition is obtained at an antagonist concentration of about 0.1 mM.

megalin, sequence (Z9GY10I8Y6 26-4660 limits assumed): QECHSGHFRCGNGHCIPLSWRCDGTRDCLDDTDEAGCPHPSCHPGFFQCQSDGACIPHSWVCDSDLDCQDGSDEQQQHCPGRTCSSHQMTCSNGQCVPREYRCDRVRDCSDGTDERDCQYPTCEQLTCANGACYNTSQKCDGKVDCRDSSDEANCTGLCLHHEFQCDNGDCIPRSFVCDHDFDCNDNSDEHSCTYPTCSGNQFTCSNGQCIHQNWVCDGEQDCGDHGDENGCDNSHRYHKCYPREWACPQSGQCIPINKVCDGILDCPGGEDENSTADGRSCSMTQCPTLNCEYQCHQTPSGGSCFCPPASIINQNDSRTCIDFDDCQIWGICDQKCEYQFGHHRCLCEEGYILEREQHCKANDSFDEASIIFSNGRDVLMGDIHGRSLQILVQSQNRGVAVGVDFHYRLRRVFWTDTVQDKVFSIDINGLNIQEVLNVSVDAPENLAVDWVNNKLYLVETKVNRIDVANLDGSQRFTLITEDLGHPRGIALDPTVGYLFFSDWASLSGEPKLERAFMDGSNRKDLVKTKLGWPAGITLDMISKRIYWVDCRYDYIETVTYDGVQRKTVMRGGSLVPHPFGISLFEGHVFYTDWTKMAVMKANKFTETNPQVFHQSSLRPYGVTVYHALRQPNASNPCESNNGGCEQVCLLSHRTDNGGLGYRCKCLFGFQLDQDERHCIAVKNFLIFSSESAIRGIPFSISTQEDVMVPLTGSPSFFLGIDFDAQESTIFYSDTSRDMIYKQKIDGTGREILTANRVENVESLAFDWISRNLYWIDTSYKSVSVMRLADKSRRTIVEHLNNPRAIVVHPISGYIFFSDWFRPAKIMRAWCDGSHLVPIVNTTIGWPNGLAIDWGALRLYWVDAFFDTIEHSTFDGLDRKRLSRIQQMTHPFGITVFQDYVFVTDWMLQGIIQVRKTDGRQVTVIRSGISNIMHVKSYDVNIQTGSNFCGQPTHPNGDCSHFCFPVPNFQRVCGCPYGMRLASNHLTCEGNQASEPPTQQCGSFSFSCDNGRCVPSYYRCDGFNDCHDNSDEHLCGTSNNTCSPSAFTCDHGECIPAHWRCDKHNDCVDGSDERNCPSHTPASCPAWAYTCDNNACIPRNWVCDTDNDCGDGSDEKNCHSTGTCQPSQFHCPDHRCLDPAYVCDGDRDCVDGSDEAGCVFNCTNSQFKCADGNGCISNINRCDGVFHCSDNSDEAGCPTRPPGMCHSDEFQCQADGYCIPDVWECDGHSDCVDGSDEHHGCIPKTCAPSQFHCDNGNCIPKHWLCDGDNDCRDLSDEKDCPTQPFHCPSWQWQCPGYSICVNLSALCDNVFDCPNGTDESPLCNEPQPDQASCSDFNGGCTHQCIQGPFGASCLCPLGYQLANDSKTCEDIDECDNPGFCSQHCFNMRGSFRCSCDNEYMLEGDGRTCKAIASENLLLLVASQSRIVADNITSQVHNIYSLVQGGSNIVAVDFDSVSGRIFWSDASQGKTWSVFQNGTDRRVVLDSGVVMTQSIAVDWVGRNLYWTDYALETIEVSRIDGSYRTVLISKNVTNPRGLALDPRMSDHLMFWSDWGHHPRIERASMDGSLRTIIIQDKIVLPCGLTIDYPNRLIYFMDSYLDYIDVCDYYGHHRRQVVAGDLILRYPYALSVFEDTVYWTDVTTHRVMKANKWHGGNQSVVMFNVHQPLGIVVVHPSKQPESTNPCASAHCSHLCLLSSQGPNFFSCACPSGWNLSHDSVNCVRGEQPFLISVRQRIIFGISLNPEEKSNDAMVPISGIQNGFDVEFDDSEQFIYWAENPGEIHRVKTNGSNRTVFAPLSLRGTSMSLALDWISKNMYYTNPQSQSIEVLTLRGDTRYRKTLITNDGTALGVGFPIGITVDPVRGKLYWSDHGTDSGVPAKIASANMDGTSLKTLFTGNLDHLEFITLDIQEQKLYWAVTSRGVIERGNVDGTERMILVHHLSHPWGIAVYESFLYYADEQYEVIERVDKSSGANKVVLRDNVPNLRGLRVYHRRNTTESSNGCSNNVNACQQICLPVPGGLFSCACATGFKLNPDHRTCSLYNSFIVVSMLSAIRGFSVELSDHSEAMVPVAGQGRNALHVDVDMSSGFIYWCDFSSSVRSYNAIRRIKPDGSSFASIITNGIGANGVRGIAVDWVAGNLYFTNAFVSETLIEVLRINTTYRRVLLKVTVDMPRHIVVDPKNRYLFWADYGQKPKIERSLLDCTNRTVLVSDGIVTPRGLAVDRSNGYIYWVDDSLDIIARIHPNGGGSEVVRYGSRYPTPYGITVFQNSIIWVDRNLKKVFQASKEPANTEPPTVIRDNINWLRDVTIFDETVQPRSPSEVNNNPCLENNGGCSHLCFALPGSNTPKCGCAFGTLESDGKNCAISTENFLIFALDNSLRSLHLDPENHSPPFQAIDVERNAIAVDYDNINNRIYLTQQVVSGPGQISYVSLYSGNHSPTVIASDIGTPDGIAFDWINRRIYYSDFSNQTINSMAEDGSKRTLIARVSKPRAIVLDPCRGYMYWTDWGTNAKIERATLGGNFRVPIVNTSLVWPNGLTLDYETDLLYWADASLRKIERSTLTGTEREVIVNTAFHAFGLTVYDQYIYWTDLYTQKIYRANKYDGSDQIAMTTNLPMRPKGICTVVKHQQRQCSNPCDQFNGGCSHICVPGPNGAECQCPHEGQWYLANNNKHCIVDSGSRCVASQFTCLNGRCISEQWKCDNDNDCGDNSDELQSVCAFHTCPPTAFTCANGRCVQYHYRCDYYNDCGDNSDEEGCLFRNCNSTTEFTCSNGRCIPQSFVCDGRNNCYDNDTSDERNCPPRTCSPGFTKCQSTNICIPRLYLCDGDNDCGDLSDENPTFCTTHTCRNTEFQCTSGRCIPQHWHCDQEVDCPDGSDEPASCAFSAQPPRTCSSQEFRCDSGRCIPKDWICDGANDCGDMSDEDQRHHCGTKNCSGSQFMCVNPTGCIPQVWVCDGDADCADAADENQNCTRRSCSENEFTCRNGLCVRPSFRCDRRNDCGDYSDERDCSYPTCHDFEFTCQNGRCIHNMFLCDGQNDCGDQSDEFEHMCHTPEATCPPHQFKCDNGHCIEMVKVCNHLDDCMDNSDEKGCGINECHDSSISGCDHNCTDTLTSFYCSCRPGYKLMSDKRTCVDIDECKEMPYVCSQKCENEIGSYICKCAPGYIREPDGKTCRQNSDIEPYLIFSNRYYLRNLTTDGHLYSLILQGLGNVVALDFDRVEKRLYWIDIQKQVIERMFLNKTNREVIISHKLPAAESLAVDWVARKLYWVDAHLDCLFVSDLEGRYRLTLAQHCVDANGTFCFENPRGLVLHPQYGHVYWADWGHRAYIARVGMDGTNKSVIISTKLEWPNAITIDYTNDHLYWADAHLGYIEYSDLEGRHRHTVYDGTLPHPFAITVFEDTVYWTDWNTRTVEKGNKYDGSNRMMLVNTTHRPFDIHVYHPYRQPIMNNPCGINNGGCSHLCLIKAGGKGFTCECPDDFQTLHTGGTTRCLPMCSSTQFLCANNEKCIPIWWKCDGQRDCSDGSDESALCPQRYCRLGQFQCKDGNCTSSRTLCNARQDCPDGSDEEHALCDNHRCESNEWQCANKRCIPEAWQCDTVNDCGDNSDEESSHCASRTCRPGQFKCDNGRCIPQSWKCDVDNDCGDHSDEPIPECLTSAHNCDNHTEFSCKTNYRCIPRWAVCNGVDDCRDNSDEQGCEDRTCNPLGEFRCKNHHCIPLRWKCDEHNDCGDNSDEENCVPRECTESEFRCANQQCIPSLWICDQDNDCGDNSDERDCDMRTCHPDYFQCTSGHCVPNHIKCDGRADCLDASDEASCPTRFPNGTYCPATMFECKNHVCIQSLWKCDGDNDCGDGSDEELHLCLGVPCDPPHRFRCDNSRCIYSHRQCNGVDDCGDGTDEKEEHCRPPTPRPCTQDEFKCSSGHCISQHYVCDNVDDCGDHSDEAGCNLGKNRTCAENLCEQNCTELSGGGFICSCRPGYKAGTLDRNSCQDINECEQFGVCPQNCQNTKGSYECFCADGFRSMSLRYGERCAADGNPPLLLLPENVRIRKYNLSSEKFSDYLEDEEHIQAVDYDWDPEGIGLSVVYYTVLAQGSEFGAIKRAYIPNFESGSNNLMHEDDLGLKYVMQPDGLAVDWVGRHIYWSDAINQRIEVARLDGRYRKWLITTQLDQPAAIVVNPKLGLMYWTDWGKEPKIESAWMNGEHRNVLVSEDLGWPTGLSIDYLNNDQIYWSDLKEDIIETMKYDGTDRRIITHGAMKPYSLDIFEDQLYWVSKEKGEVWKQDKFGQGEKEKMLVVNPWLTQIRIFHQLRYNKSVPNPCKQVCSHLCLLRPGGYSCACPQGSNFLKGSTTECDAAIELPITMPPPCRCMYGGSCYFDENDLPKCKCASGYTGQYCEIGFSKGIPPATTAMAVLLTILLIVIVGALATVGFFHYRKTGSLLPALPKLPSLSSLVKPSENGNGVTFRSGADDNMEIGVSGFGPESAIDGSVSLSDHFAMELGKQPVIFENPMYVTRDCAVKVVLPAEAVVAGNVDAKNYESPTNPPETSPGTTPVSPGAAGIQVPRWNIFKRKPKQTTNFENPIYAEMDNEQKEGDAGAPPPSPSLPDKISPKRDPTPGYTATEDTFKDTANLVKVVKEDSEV

SMILES: NCc1ccc(CN)cc1 [RC043, p-xylylene diamine]
- IC50: ~100 µM
